{
  "source": "patent US11185516B2",
  "about": "(Laboratorios Silanes S.A. DE C.V., priority 2016, dated 2021)",
  "key": {"AS160": {"system": "AS160", "experiment": "In vitro AS160 phosphorylation in the presence of GPBP, AMPK and AKT", "assay_type": "biochemical", "details": "5 mM, with FLAG-GPBP, AKT, AMPK", "method": "The reactions (25 μL) were carried out at 30° C., and stirred (350 rpm) for 15 min. Then, they were stopped with a reducing loading buffer, heated (95° C., 2 min), and analyzed using electrophoresis, electrotransfer, and autoradiography."}, "insulin receptor (IRβ)": {"system": "insulin receptor (IRβ)", "details": "10 mM, 3 h", "source_text": "Next, cells were washed with PBS and their membrane proteins were extracted."}, "C2C12 myotubes": {"system": "C2C12 myotubes", "experiment": "Glucose concentration of C2C12 myotube cultures in M1 macrophage conditioned media", "assay_type": "cell-based, mouse", "details": "macrophages treated with 10 mM for 2 h, then LPS/IFNγ 16 h", "method": "There is considerable evidence showing that inflammation and hyperglycemia are interconnected: inflammation induces hyperglycemia and reciprocally hyperglycemia induces inflammation with the molecular bases not elucidated yet. To explore the participation of GPBP, glucose intake under normoglycemic conditions with conditioned media generated by macrophages differentiated to a proinflammatory M1 phenotype was monitored.\n[…]. The glucose concentration of the myotube cultures was determined at different times with Glucocard (Arkray). The controls used were the C2C12 cultured with media conditioned with no stimulated macrophages (Cells) or with M1 conditioned media (M1). The initial glucose levels (time 0) were used as a reference (100%) in each series."}, "HeLa cells": {"system": "HeLa cells", "details": "10 mM, 20 h", "method": "After the incubation, the cells were washed with PBS, collected and washed again, then fixed with methanol:acetone (50:50) for 16 h at −20° C., and stained with 10 μg/mL of propidium iodide, 0.01 mg/mL RNase, 0.01% sodium citrate, for 20 min at 37° C. in darkness. The stained cells were analyzed by flow cytometry using a BD FACS cell sorter and BD FACSuite™ software."}, "GPBP [1]": {"molecular_target": "T1, GPBP (Homo sapiens, UniProt Q9Y5P4)", "T1 sequence (Q9Y5P4 1-624)": "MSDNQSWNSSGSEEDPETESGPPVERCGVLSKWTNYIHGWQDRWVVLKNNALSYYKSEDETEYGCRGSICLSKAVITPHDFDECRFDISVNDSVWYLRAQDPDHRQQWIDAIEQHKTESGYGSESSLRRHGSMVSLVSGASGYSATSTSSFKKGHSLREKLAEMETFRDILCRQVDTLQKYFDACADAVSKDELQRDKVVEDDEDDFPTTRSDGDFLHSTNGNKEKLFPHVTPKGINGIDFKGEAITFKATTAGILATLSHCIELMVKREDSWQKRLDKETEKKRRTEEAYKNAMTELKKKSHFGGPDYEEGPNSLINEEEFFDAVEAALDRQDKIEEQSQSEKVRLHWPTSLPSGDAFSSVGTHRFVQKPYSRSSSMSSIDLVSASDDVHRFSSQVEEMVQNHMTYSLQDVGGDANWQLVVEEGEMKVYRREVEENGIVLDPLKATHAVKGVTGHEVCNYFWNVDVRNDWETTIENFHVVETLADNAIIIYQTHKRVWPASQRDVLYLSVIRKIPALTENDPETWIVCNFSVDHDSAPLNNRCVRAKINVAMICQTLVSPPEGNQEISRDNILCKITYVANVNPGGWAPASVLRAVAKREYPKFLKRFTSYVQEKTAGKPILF", "quoted_text": "HeLa cells, cultured in DMEM, supplemented with 10% fetal bovine serum (FBS), and penicillin/streptomycin, were treated or not (control) with SLN1 or SLN2 1 mM for 24 h. After treatment, cells were washed with PBS, collected with a cell scrapper in PBS, and centrifuged (1850g×10 min, 4° C.). Subsequently, cell precipitates were dispersed in five volumes of hypotonic solution (10 mM HEPES, pH 7.9, 1.5 mM MgCl2, 10 mM KCl, 0.2 mM PMSF, 0.5 M DTT), centrifuged (1850×g, 5 min, 4° C.), and then dispersed again in 3 volumes of hypotonic solution and stored in ice for 10 min. Cells were then lysed with a Dounce homogenizer (18 pestle movements) and centrifuged (3300×g, 15 min, 4° C.). Supernatants (cytoplasmic fraction) were put into a concentrated solution (10×) of 30 mM HEPES, pH 7.9, 140 mM KCl, 0.3 mM MgCl2, and centrifuged for 1 h at 100,000×g. Supernatants were dialyzed against 50 volumes of dialysis solution (20 mM HEPES, pH 7.9, 20% glycerol, 100 mM KCl, 0.2 mM EDTA, 0.2 mM PMSF, 0.5 M DTT), cleared (25000×g, 20 min, 4° C.), and concentrated (Microcon 10K). Then, protein concentration was determined (Bio-Rad) and samples were stored at −80° C. Similar extract quantities were analyzed via gel filtration, using a Superdex 200 column, balanced with PBS (5 GE Healthcare), and a Hitachi HPLC device, collecting fractions of 500 μL. Equivalent fraction volumes were analyzed via Western blots with anti-GPBP N27-HRP antibodies."}, "IRS2−/− (KO) mice": {"system": "IRS2−/− (KO) mice", "experiment": "Fasting glycemia and insulinemia in female IRS2−/− mice", "assay_type": "in vivo, mouse", "details": "4 weeks", "source_text": "Insulin resistance characterizes type 2 diabetes, obesity, and the metabolic syndrome. Thus, insulin sensitivity is a major therapeutic objective for these metabolic diseases. Insulin receptor substrate (IRS) proteins regulate the physiological actions of insulin upon binding to the receptor. Specific deletion of IRS2 in mice produces diabetes due to a developmental reduction of the pancreatic β-cell mass and the inability of existing β-cells to expand in response to peripheral insulin resistance. Additionally, IRS2-deficiency in mice causes hepatic insulin resistance concurrent with failed suppression of hepatic glucose production. While male IRS2−/− mice often die of diabetic complications by 12 weeks of age, females IRS2−/− mice develop a milder form of diabetes and many live up to 6 months. The observation that female IRS2−/− mice eat more than controls led to the discovery that this molecule is critical for hypothalamic regulation of food intake.\nThe mean glycemic values are represented per group (n=3) pre-treatment (black bars) and post-treatment (gray bars) along with their standard deviations. […] The fasting serum insulin levels taken pre-treatment (black bars) and post-treatment (gray bars) were determined using a kit (Millipore), following the manufacturer's instructions. Mean values and standard deviations are presented for each group (n=3) (FIG. 12D).\nDue to peripheral resistance to insulin, the IRS2−/− mice also develop hyperinsulinemia."}, "GPBP [2]": {"molecular_target": "GPBP (Mus musculus, UniProt Q9EQG9)", "sequence (Q9EQG9 whole entry)": "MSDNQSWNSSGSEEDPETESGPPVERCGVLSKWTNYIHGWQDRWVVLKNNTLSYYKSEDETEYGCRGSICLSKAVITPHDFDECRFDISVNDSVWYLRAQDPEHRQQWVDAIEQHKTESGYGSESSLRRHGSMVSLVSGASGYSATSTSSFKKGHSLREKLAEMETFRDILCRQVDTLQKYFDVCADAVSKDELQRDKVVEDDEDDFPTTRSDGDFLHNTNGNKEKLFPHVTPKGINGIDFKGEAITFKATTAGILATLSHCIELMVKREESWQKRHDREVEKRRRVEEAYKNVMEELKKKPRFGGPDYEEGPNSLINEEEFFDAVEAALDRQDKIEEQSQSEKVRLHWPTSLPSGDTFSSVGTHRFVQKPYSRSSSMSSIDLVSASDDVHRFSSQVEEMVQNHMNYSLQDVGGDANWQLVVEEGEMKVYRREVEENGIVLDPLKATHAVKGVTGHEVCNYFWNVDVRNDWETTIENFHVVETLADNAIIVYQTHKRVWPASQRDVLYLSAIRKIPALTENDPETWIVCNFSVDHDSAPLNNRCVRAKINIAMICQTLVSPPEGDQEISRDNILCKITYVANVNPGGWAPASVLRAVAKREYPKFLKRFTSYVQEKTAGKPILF", "details": "10 mM, 3 h, FIG. 6B", "method": "The cells were lysed in a lyse buffer ([…], […], 1% Triton X-100, 1 μM phenylmethylsulphonylfluoride (PMSF) and 10 μg/mL leupeptin) for 30 min at 4° C. Lysates were centrifuged at 16000×g for 5 min at 4° C. and the total protein concentration of the supernatants determined with the Bradford reagent (Bio-Rad). The samples were analyzed by Western blot using the anti-GPBP mAb-N27 and detected with chemoluminiscence (ECL Prime, GE Healthcare)."}, "VAPA and VAMPs": {"system": "VAPA and VAMPs", "experiment": "Colocalization of VAPA and VAMPs (FIG. 18)"}, "[3]": {"details": "2:1 complex (2 molecules of metformin for 1 of glycine), aqueous solution"}, "GPBP and AKT": {"molecular_target": "GPBP and AKT (Homo sapiens, UniProt Q9Y5P4)", "details": "5 mM", "method": "Two hundred nanograms of AS160 (Origene Technologies) was incubated either in the absence (−) or in the presence (+) of FLAG-GPBP (270 ng), AKT (Millipore) (200 ng) and SLN1 or SLN2 (5 mM) in phosphorylation solution (β-glycerophosphate 25 mM (pH 7.0), EDTA 0.5 mM, EGTA 0.5 mM, MgCl2 8 mM, MnCl2 5 mM, DTT 1 mM) without ATP for 10 min at RT, after which [γ-^32P] ATP (Perkin Elmer) (0.132 μM) and ATP (Sigma) (100 μM) were added. Reaction cocktails (25 μl) were incubated at 30° C. for 15 min, and stirred (350 rpm)."}},
  "data": [
    {"compound": "CN(C)C(=N)NC(=N)N", "note": "[Metformin glycinate, N,N-dimethylimidodicarbonimidic diamide glycinate]", "values": [
      {"measurement": "phosphorylation of AS160", "setting": "AS160", "value": "increased"},
      {"measurement": "accumulation of IRβ on the cell membrane vs metformin hydrochloride", "setting": "insulin receptor (IRβ)", "value": "significantly more accumulation"},
      {"measurement": "glucose levels of myotube cultures (hyperglycemic levels)", "setting": "C2C12 myotubes", "value": "maintained values at normoglycemic levels"},
      {"measurement": "cancer cells entering G1 phase cell cycle arrest", "setting": "HeLa cells", "value": "about 56%"},
      {"measurement": "high molecular weight GPBP aggregates", "setting": "GPBP [1]; 1 mM, 24 h", "value": "high molecular weight aggregates formed"},
      {"measurement": "GPBP-LKB1 aggregates", "setting": "GPBP [1]; FIG. 14", "value": "dissociates GPBP-LKB1 aggregates"},
      {"measurement": "A1c level after two months treatment", "setting": "type 2 diabetes patients; 1050.6 mg per day 30 days, then 1050.6 mg twice a day 30 days, p=0.008", "value": "7.1±1.0", "unit": "%"},
      {"measurement": "A1c level before treatment", "setting": "type 2 diabetes patients; DMMET01 group, baseline", "value": "8.1±0.8", "unit": "%"},
      {"measurement": "reduction of the A1c level", "setting": "type 2 diabetes patients; after two months treatment", "value": "more than 1%"},
      {"measurement": "sensitivity to insulin (Glucose CLAMP)", "setting": "type 2 diabetes patients; after two months treatment", "value": "did not change"},
      {"measurement": "adverse events vs placebo", "setting": "type 2 diabetes patients; two months treatment", "value": "No statistically significant difference in adverse events"},
      {"measurement": "fasting glycemia post-treatment", "setting": "IRS2−/− (KO) mice; 100 mg/kg/day with food, 10-12 weeks old", "value": "significantly lower than those pre-treatments"},
      {"measurement": "fasting insulin levels", "setting": "IRS2−/− (KO) mice; 100 mg/kg/day", "value": "lowered the fasting insulin levels"},
      {"measurement": "GPBP dephosphorylation vs untreated or metformin treated cells", "setting": "GPBP [2]", "value": "more GPBP dephosphorylation"},
      {"measurement": "colocalization of VAPA and VAMPS", "setting": "VAPA and VAMPs", "value": "reduced colocalization"},
      {"measurement": "complexation constant", "setting": "[3]", "value": "712±19"},
      {"measurement": "GPBP and AKT cross activation", "setting": "GPBP and AKT", "value": "counteracted GPBP and AKT cross activation"}
    ]}
  ]
}
